Source: patent US20110189669A1, “METHODS OF AIDING IN THE DIAGNOSIS OF PROSTATE CANCER” (IMPERIAL INNOVATIONS LIMITED, priority 2008, published 2011)

Key:
[1] = system: GNMT; settings: cited from earlier work
[2] = system: LNCaP cells; test: gene expression microarray of androgen-regulated genes in LNCaP cells; assay type: cell-based
Experimental: Microarray analysis was carried out on RNAs prepared from three bioreplicate cultures for the no ligand and R1881 treatments.
In order to identify androgen-regulated genes in LNCaP cells, we have performed gene expression microarray profiling using the Applied Biosystems Genome Survey Microarray V2.0. […] These genes include known androgen-responsive genes, including PSA (KLK3), KLK2, DRG-1 and TMPRSS2.
Detailed time course studies were undertaken to determine the time of androgen treatment for optimal expression of androgen-responsive genes (PSA and DRG-1) in the LNCaP cells (FIG. 1A-D). On the basis of these studies, RNA from […] bio-replicate cultures were prepared from LNCaP cells treated with androgen for 24 hours, as well as the no ligand control. The RNAs were subjected to RNA quality assays and validated by real-time RT-PCR for two control genes (GAPDH and RPLPO) and the androgen regulated genes PSA, DRG-1 and GREB-1. […] Three replicates from each treatment set were subsequently used for hybridisation to the Applied Biosystems (ABI) Human Genome Survey Microarray V2.0, which has probes for 29,098 genes, representing the most comprehensive coverage currently available for any human gene expression microarray platform. Raw data were quality assessed and filtered according to the recommendations supplied by the ABI1700 Data Analysis User Guide and the filtered data “vsn normalised” (4). Differential expression was assessed using liner models and empirical Bayes algorithms as described in (5). This analysis has robustly defined 456 probes whose expression was stimulated by androgen by two fold or greater, with positive lod scores (B values) for differential expression.

[3] = system: LNCaP cells; test: LNCaP cell growth (Sulphorhodamine B cell staining / cell numbers); assay type: cell-based
Experimental: A) LNCaP cell growth is stimulated by the synthetic androgen R1881 (1 nM), as measured using the Sulphorhodamine B cell staining assay.
LNCaP cells were cultured in the absence or presence of 1 nM R1881 and increasing concentrations of SAH for 6 days at which point cell numbers were measured.
Biological methylation reactions which utilise S-adenosylmethionine (SAM) as a methyl donor encompass several key cellular and metabolic processes and include the methylation of phospholipids, proteins, DNA and RNA. This class of reaction is carried out by methyltransferases that are represented by a diverse group of distantly related proteins (8-10), with domains that catalyse the transfer of the methyl group from SAM to a molecular substrate, together with the in-situ generation of SAH. For most methyltransferases, SAH is known to have a higher affinity than SAM for the catalytic site, thereby acting as a potent feedback inhibitor of methyltransferase activity within the cell. […] In most tissues, the balance between SAM and SAH and the subsequent regulation of global methylation activity resides in the ability to rapidly metabolise SAH through the enzyme S-adenosylhomocysteine hydrolase (SAH hydrolase). […] GNMT is a phylogenetically conserved enzyme (12) that methylates Glycine to produce N-Methyl Glycine (sarcosine), which is known to be largely physiologically inert, and also generates SAH. […]

Compound	inhibition of GNMT (literature statement) [1]	up-regulation of DRG-1 expression ([2]; 24 hours androgen treatment) [fold]	up-regulation of KLK2 expression ([2]; 24 hours androgen treatment) [fold]	up-regulation of PSA (KLK3) expression ([2]; 24 hours androgen treatment) [fold]	up-regulation of TMPRSS2 expression ([2]; 24 hours androgen treatment) [fold]	increase in GNMT gene expression ([2]; within 24 hours of androgen treatment) [fold]	LNCaP cell growth ([3]; R1881 1 nM, Sulphorhodamine B assay)	effect on androgen-stimulated growth of LNCaP cells ([3]; 1 nM R1881 plus increasing concentrations of SAH, 6 days)
Nc1nc2ncc(CNc3ccc(C(=O)N[C@@H](CCC(=O)O)C(=O)O)cc3)nc2c(=O)[nH]1 [Folic acid]	allosteric inhibitor							
C[C@]1(O)CC[C@H]2[C@@H]3CCC4=CC(=O)CCC4=C3C=C[C@@]21C [R1881]		24	32	30	16	16	stimulated	
Nc1ncnc2c1ncn2[C@@H]1O[C@H](CSCC[C@H](N)C(=O)O)[C@@H](O)[C@H]1O [SAH, S-adenosyl-homocysteine]	relatively insensitive							potentiates the androgen-stimulated growth
